Measured values from US20260199204A1, “ANTIMICROBIAL COMBINATIONS” (Clariant International Ltd, priority 2022, published 2026).
Values after ≈ are worked out from the molar mass of the structure shown. Read-outs that look alike come from different tables or passages of the source.

Legend:
Assay type in all cases: cell-based
[1] = system: all test organisms (P.a., S.a., E.c., C.a., A.b.); assay: Challenge test in O/W-cream gel, overall result; set-up: key to Challenge test criteria for all test organisms: An A-criteria is related to an excellent protection of a formulation; B-criteria is needed to show sufficient protection but additional risk eliminating measures related to packaging and raw material quality need to be applied; With an F-criteria for any of the organism tested the whole challenge test is failed and the preservation/protection of the formulation is not sufficient; settings: pH 7
Source text: (§1) Following examples show challenge test results that were done according to EUROPEAN PHARMACOPOEIA 10TH EDITION. Chapter 5.1.3. As representative microorganisms the following test germs were used: Pseudomonas aeruginosa (gram-negative organism, short “P.a.”), Staphylococcus aureus (gram-positive organism, short “S.a.”), Escherichia coli (gram negative organism, short “E.c.”), Candida albicans (yeast, short “C.a.”) and Aspergillus brasiliensis (mold, short “A.b.”). The A criteria express the recommended efficacy to be achieved. In justified cases where the A criteria cannot be attained, for example for reasons of an increased risk of adverse reactions, the B criteria must be satisfied. An A-criteria is related to an excellent protection of a formulation, B-criteria is needed to show sufficient protection but additional risk eliminating measures related to packaging and raw material quality need to be applied. With an F-criteria for any of the organism tested the whole challenge test is failed and the preservation/protection of the formulation is not sufficient. As a reference an unpreserved sample of the respective formulation was tested as well. As a test system a difficult to preserve formulation was used: Leave-on: O/W-Cream Gel [table]

[2] = system: Pseudomonas aeruginosa (P.a.); assay: Challenge test (European Pharmacopoeia 10th Edition, 5.1.3) in O/W-cream gel; set-up: key: An A-criteria is related to an excellent protection of a formulation; B-criteria is needed to show sufficient protection but additional risk eliminating measures related to packaging and raw material quality need to be applied; With an F-criteria for any of the organism tested the whole challenge test is failed and the preservation/protection of the formulation is not sufficient; settings: pH 7
Source text: as §1

[3] = system: Candida albicans (C.a.); assay: as above; set-up: key: An A-criteria is related to an excellent protection of a formulation; B-criteria is needed to show sufficient protection but additional risk eliminating measures related to packaging and raw material quality need to be applied; With an F-criteria for any of the organism tested the whole challenge test is failed and the preservation/protection of the formulation is not sufficient; settings: pH 7
Source text: as §1

[4] = system: Escherichia coli (E.c.); assay: as above; set-up: key: An A-criteria is related to an excellent protection of a formulation; B-criteria is needed to show sufficient protection but additional risk eliminating measures related to packaging and raw material quality need to be applied; With an F-criteria for any of the organism tested the whole challenge test is failed and the preservation/protection of the formulation is not sufficient
Source text: as §1

[5] = system: Aspergillus brasiliensis (A.b.); assay: as above; set-up: key: An A-criteria is related to an excellent protection of a formulation; B-criteria is needed to show sufficient protection but additional risk eliminating measures related to packaging and raw material quality need to be applied; With an F-criteria for any of the organism tested the whole challenge test is failed and the preservation/protection of the formulation is not sufficient; settings: pH 7
Source text: as §1

[6] = system: Staphylococcus aureus (S.a.); assay: as above; set-up: key: An A-criteria is related to an excellent protection of a formulation; B-criteria is needed to show sufficient protection but additional risk eliminating measures related to packaging and raw material quality need to be applied; With an F-criteria for any of the organism tested the whole challenge test is failed and the preservation/protection of the formulation is not sufficient; settings: pH 7
Source text: as §1

[7] = system: Fusarium solani IMI 322444; assay: MIC agar dilution test, mold; settings: Fusarium solani (M) IMI 322444, Sabouraud-4% Dextrose-Agar, pH 5.6
Description: (§2) The antimicrobial properties of Velsan Flex, 4-Hydroxyacetophenone and a combination of both against bacteria, yeast and mold were investigated: For testing the inhibition of bacteria, Velsan Flex, 4-Hydroxyacetophenone or a combination of both was diluted in butylpolyglycol and added in different concentrations to liquid Caso-Agar at 50° C. and was buffered to pH 7 (+/−0.2). For testing the inhibition of yeast and mold, Velsan Flex, 4-Hydroxyacetophenone or a combination of both was diluted in butylpolyglycol and added in different concentrations to liquid Sabouraud-4% Dextrose-Agar at 50° C. and was buffered to pH 5.6 (+/−0.2). Each of the solutions was poured into a petri-dish and inoculated with the same amount of bacteria, yeast or mold respectively. The minimum inhibitory concentration (MIC) is the lowest concentration of the respective composition that inhibits the growth of the respective microorganism where the next lowest dilution fails to inhibit the growth of said microorganism.
(§3) In a similar experiment as described above the antimicrobial properties of Velsan SC, 4-Hydroxyacetophenone and a combination of both against bacteria, yeast and mold were investigated.

[8] = system: Aspergillus brasiliensis DSM 1988; assay: MIC agar dilution test, mold; settings: Aspergillus brasiliensis (M) DSM 1988, Sabouraud-4% Dextrose-Agar, pH 5.6
Description: as §2, §3

[9] = system: Penicillium minioluteum/Penicillium purpurogenum ATCC 52427; assay: MIC agar dilution test, mold; settings: Penicillium minioluteum/Penicillium purpurogenum (M) ATCC 52427, Sabouraud-4% Dextrose-Agar, pH 5.6
Description: as §2, §3

[10] = system: Aspergillus terreus IMI 45543; assay: MIC agar dilution test, mold; settings: Aspergillus terreus (M) IMI 45543, Sabouraud-4% Dextrose-Agar, pH 5.6
Description: as §2, §3

[11] = system: Candida parapsilosis DSM 5784; assay: MIC agar dilution test, yeast; settings: Lodderomyces parapsilosis, DSM5784; Candida parapsilosis (Y) DSM 5784; Sabouraud-4% Dextrose-Agar, pH 5.6
Description: as §2, with “microorganism. The experiments were carried out in scientifically fair conditions so that a proper comparison could be made and conclusions drawn.” for “microorganism.”

[12] = system: Klebsiella pneumoniae DSM 786; assay: MIC agar dilution test, bacteria; settings: Klebsiella pneumoniae (B) DSM 786, Caso-Agar, pH 7
Description: as §2, §3

[13] = system: Staphylococcus aureus DSM 799; assay: MIC agar dilution test, bacteria; settings: Staphylococcus aureus (B) DSM 799, Caso-Agar, pH 7
Description: as §2, §3

[14] = system: Candida albicans DSM 1386; assay: MIC agar dilution test, yeast; settings: Candida albicans (Y) DSM 1386, Sabouraud-4% Dextrose-Agar, pH 5.6
Description: as §2, §3

[15] = system: Saccharomyces cerevisiae DSM 70449; assay: MIC agar dilution test, yeast; settings: Saccharomyces cerevisiae (Y) DSM 70449, Sabouraud-4% Dextrose-Agar, pH 5.6
Description: as §2, §3

[16] = system: Burkholderia cepacia DSM 7288; assay: MIC agar dilution test, bacteria; settings: Burkholderia cepacia (B) DSM 7288, Caso-Agar, pH 7

## CC(=O)c1ccc(O)cc1 [4-Hydroxyacetophenone]
[1]; 0.25% as single preservative (entry 5)
  Challenge test criteria for all test organisms: F
[1]; use level 0.5%, alone (entry 6)
  Ability to preserve the formulation: not sufficient to preserve the formulation
[2]; concentration 0.25%
  Challenge test result P.a.: F
[2]; concentration 0.5%
  Challenge test result P.a.: A
[3]; concentration 0.25%
  Challenge test result C.a.: F
[3]; concentration 0.5%
  Challenge test result C.a.: A
[4]; concentration 0.25%, pH 7
  Challenge test result E.c.: F
[4]; concentration 0.5%, pH 7
  Challenge test result E.c.: F
[4]; concentration 0.5%, pH 7, listed as Hydroxyacetophenone
  Challenge test result E.c.: fails
[5]; concentration 0.25%
  Challenge test result A.b.: F
[5]; concentration 0.5%
  Challenge test result A.b.: A
[6]; concentration 0.25%
  Challenge test result S.a.: F
[6]; concentration 0.5%
  Challenge test result S.a.: B

## CC(=O)c1ccc(O)cc1 [10% Hydroxyacetophenone solution, 4-Hydroxyacetophenone]
[7]; IMI322444, read-out: MIC
  MIC: 3000 µg/mL
[8]; DSM1988, read-out: MIC
  MIC: 8000 µg/mL
[9]; Talaromyces minioluteus, ATCC52427, read-out: MIC
  MIC: 6000 µg/mL
[10]; IMI45543, read-out: MIC
  MIC: 6000 µg/mL
[11]
  MIC: > 10000 µg/mL
[12]; DSM786, read-out: MIC
  MIC: 8000 µg/mL
[13]; DSM799, read-out: MIC
  MIC: > 10000 µg/mL
[14]; DSM1386, read-out: MIC
  MIC: 10000 µg/mL
[15]; DSM70449, read-out: MIC
  MIC: 8000 µg/mL
[16]; DSM7288, read-out: MIC
  MIC: 4000 µg/mL (≈ 29.4 mM)

## Sorbitan caprylate [90% Velsan SC solution]
[7]
  MIC: 1500 ppm
[8]
  MIC: 4000 ppm
[9]
  MIC: 1500 ppm
[10]
  MIC: 1500 ppm
[12]
  MIC: 2000 ppm
[13]
  MIC: 750 ppm
[14]
  MIC: 1500 ppm
[15]
  MIC: 3000 ppm
[16]
  MIC: 6000 ppm

## Sorbitan caprylate [Velsan SC]
[1]; alone, entries 8-11 (0.5%; Velsan CGE 0.5% and 0.25%)
  Ability to preserve the formulation: not sufficient to preserve the formulation
[2]; concentration 0.5%
  Challenge test result P.a.: F
[3]; concentration 0.5%
  Challenge test result C.a.: F
[4]; concentration 0.5%, pH 7
  Challenge test result E.c.: F
[5]; concentration 0.5%
  Challenge test result A.b.: B
[6]; concentration 0.5%
  Challenge test result S.a.: B
